Source: patent US9114164B2 (MEXICHEM AMANCO HOLDING S.A. DE C.V., priority 2011, dated 2015)

Assay: in vitro aerosolization performance from MDI, Next Generation Impactor (NGI) with HPLC
Format: physicochemical
Details: formulated with R-152a rather than R-134a
Protocol: Drug was weighed directly into standard aluminium 19 mL cans (C128, Presspart, Blackburn, UK). The cans were then crimped with a 50 μL valve (Bespak, Kings Lynn, UK). Finally, the propellant was filled into the cans through the valve using a manual Pamasol crimper/filler (Pamasol, Switzerland). High performance liquid chromatography (HPLC) was used to determine drug content following aerosolization studies (see below). The HPLC machine consisted of a pump, column oven, column coupled to a UV detector (all Agilent 1200, Wokingham, Berkshire, UK). A Hypersil BDS C18 column (Fisher, Loughborough, UK, 5 μm, 250×4.6 mm i.d.) was used for high-throughput analysis of samples. The in vitro aerosolization performance of the formulations was studied using a Next Generation Impactor (NGI, Copley Scientific, Nottingham UK), which was connected to a vacuum pump (GE Motors, NJ, USA). Prior to testing, the cups of the NGI system were coated with 1% v/v silicone oil in hexane to eliminate particle bounce. For each experiment, three actuations of the can were discharged into the NGI at 30 L·min^−1 as per pharmacopeia guidelines. […] The mass of drug deposited on each part of the NGI was determined by HPLC. This protocol was repeated three times for the can, following which, the fine particle dose (FPD) and fine particle fraction of the emitted dose (FPFED) were determined.

In the case of salbutamol sulphate, the “emitted dose, comparison in words” value is reported as “significantly (p<0.05) greater”.
